According to patent US20230263757A1, “DISINFECTING WIPE KIT FOR CENTRAL VENOUS ACCESS DEVICES” (SterileCare Inc., priority 2022, published 2023):
Counter-ions that a name gives are not always drawn.

Legend:
S. epidermidis SK9 [1] = test: Checkerboard, FMCI; assay type: cell-based, Staphylococcus epidermidis; conditions: EDTA + chlorhexidine HCl
Procedure: (§1) An assay was made using a minimum inhibitory concentration (MIC) and minimum bactericidal concentration (MBC) and minimum fungicidal concentration (MFC) determination. The MIC was determined by the micro broth dilution method in 96-well plates. Serial two-fold dilutions of tetrasodium EDTA (from 2% to 0.015%), ethanol (from 50% to 0.1%) and chlorhexidine HCl (from 100 μg/mL to 0.025 μg/mL) were prepared in MH broth with a final volume of 90 μL per well. A 10 μL containing 1×10^5 bacterial cells or 2×10^3 fungal cells were added to each well. The inoculated plates were covered with a lid, sealed with Parafilm, and incubated for 24 h at 37° C. with slight rocking on a tilting platform shaker. After incubation, the optical density at 600 nm (OD 600) of the cultures in each well was measured using an xMark™ Microplate Absorbance Spectrophotometer (Bio-Rad). […] MBCs and MFCs were determined by transferring 100 μL from each well with no apparent growth onto appropriate agar plates, followed by incubation for 24 h at 37° C.
(§2) A fourth composition and solution included tetrasodium EDTA with ethanol or chlorhexidine HCl. This fourth composition and solution were created using checkerboard titration methods using micro broth dilution in 96-well microtiter plates. The concentrations of antimicrobials used were based on previously determined MIC values. Briefly, 200 μL, of two-fold dilutions of tetrasodium EDTA and ethanol or chlorhexidine HCl were prepared in MH or MH II broth with standardized cell suspension. […] Microtiter plates were incubated at 37° C. for 24 h, and the results were analyzed. Each test was performed in duplicate and included a growth control without adding any antimicrobials.

MRSA ON184 [2] = test: FBEC index, checkerboard on biofilms; assay type: cell-based, S. aureus; conditions: EDTA + chlorhexidine HCl
Procedure: (§3) In step (4), microtiter plates are incubated at 37° C. for 24 h. then (6), after incubation, the bacterial and fungal cells were dislodged from the pegs into the recovery medium described above.
(§4) Three 10-μL aliquots, for a total of 30 μL from each well of recovery medium, were spotted on MH agar plates and incubated for 24 h at 37° C. […] The FBEC determination is a modification of the FICI.

E. coli SK2 [3] = test: MBC/MFC determination; assay type: cell-based, Escherichia coli; conditions: alone
Procedure: as §1

Candida albicans SK4b [4] = test: FBEC index, checkerboard on biofilms; assay type: cell-based; conditions: EDTA + chlorhexidine HCl
Procedure: as §3, §4

[5] = tested on: Staphylococcus epidermidis SK9; test: FBEC index, checkerboard on biofilms; assay type: cell-based; conditions: EDTA + chlorhexidine HCl
Procedure: as §3, §4

[6] = tested on: 48-h-old biofilms of all of the test organisms; test: Rapid biofilm eradication, 2-h exposure; assay type: cell-based; conditions: two h of exposure; preformed biofilms
Procedure: Determining rapid biofilm eradication by tetrasodium EDTA, ethanol, and chlorhexidine HCl alone and in combination was performed. After biofilm formation, control pegs (n=6) were removed and analyzed to determine the starting biofilm cell numbers via the drop dilution method. The 48-h old biofilms on the pegs were exposed to different concentrations of test antimicrobials, dissolved in an appropriate growth medium, for two h to evaluate their efficacy alone and in combination. Antimicrobial solutions tested against each organism included each agent alone at the MBEC, double combinations at the FBEC, and triple combinations ranging from 5 to 20% ethanol, 2.5-5 μg/mL chlorhexidine HCl and 1-3% tetrasodium EDTA. Following treatment, pegs were washed twice with sterile PBS, and the biofilm cells were dislodged into recovery medium and enumerated as described above.
The method for rapid biofilm eradication ability of test antimicrobials alone and in combination against 48-h-old biofilms within two h exposure time included (1) choosing different concentrations of test antimicrobials to assess their potency in eradicating preformed biofilms of study organisms within two h. Then (2) the quantitative recovery from biofilms following exposure to the antimicrobial solutions for bacterial strains (FIGS. 9A-9B) and fungal strains (FIG. 5) was evaluated.

Escherichia coli SK2 = test: FBEC index, checkerboard on biofilms; assay type: cell-based; conditions: EDTA + chlorhexidine HCl
Procedure: as §3, §4

Candida albicans SK4b [7] = test: Checkerboard, FMCI; assay type: cell-based; conditions: EDTA + chlorhexidine HCl
Procedure: as §1, §2

[8] = tested on: Staphylococcus epidermidis ON170; test: Checkerboard, FMCI; assay type: cell-based; conditions: EDTA + chlorhexidine HCl
Procedure: as §1, §2

Serratia marcescens SK2 = test: Checkerboard, FMCI; assay type: cell-based; conditions: EDTA + chlorhexidine HCl
Procedure: as §1, §2

Escherichia coli ON29 = test: Checkerboard, FMCI; assay type: cell-based; conditions: EDTA + chlorhexidine HCl
Procedure: as §1, §2

[9] = tested on: Staphylococcus aureus ON89; test: Checkerboard, FMCI; assay type: cell-based; conditions: EDTA + chlorhexidine HCl
Procedure: as §1, §2

Proteus mirabilis ON153 = test: Checkerboard, FMCI; assay type: cell-based; conditions: EDTA + chlorhexidine HCl
Procedure: as §1, §2

[10] = tested on: Stenotrophomonas maltophilia ON17; test: Checkerboard, FMCI; assay type: cell-based; conditions: EDTA + chlorhexidine HCl
Procedure: as §1, §2

[11] = tested on: Pseudomonas aeruginosa SK1; test: Checkerboard, FMCI; assay type: cell-based; conditions: EDTA + chlorhexidine HCl
Procedure: as §1, §2

[12] = tested on: Pseudomonas aeruginosa SK1; test: FBEC index, checkerboard on biofilms; assay type: cell-based; conditions: EDTA + chlorhexidine HCl
Procedure: as §3, §4

S. epidermidis SK9 [13] = test: MBC/MFC determination; assay type: cell-based, Staphylococcus epidermidis; conditions: alone
Procedure: as §1

C. albicans ON47 [14] = test: Checkerboard titration, FICI; assay type: cell-based, Candida albicans; conditions: EDTA + chlorhexidine HCl
Procedure: as §2

MRSA ON184 [15] = test: MIC, micro broth dilution; assay type: cell-based, S. aureus; conditions: Staphylococcus aureus, alone, read-out: MIC
Procedure: as §1

E. coli SK2 [16] = test: MIC, micro broth dilution; assay type: cell-based, Escherichia coli; conditions: Escherichia coli, alone, read-out: MIC
Procedure: as §1

E. coli SK2 [17] = test: Checkerboard, FMCI; assay type: cell-based, Escherichia coli; conditions: EDTA + chlorhexidine HCl
Procedure: as §1, §2

C. albicans ON47 [18] = test: FBEC index, checkerboard on biofilms; assay type: cell-based, Candida albicans; conditions: EDTA + chlorhexidine HCl
Procedure: as §3, §4

MRSA ON184 [19] = test: Checkerboard, FMCI; assay type: cell-based, S. aureus; conditions: EDTA + chlorhexidine HCl
Procedure: as §1, §2

S. epidermidis SK9 [20] = test: Checkerboard titration, FICI; assay type: cell-based, Staphylococcus epidermidis; conditions: EDTA + chlorhexidine HCl
Procedure: as §2

[H]/N=C(\N/C(=N/[H])NCCCCCCNC(=N)NC(=N)Nc1ccc(Cl)cc1)Nc1ccc(Cl)cc1 [Chlorhexidine HCl, 1,6-bis(4′-chlorophenylbiguanide) hexane]
0.8 µg/mL: MBC/MFC (E. coli SK2 [3]) | Chlorhexidine HCl microbicidal concentration in combination (Candida albicans SK4b [7]) | MBC/MFC (S. epidermidis SK9 [13]) | Chlorhexidine HCl concentration in combination (C. albicans ON47 [14])
0.025 µg/mL: Chlorhexidine HCl concentration in combination (S. epidermidis SK9 [20])
failed to eradicate: biofilm eradication at the MBEC alone [6]
3.125 µg/mL: Chlorhexidine HCl biofilm eradication concentration in combination (FBEC) [5] | Chlorhexidine HCl biofilm eradication concentration in combination (FBEC) (Escherichia coli SK2) | Chlorhexidine HCl biofilm eradication concentration in combination (FBEC) [12]
6.25 µg/mL: Chlorhexidine HCl biofilm eradication concentration in combination (FBEC) (MRSA ON184 [2]) | Chlorhexidine HCl biofilm eradication concentration in combination (FBEC) (Candida albicans SK4b [4]) | Chlorhexidine HCl biofilm eradication concentration in combination (FBEC) (C. albicans ON47 [18])
0.2 µg/mL: Chlorhexidine HCl microbicidal concentration in combination (Escherichia coli ON29) | Chlorhexidine HCl microbicidal concentration in combination [9] | MIC (MRSA ON184 [15]) | Chlorhexidine HCl microbicidal concentration in combination (E. coli SK2 [17])
1.6 µg/mL: Chlorhexidine HCl microbicidal concentration in combination (Serratia marcescens SK2) | Chlorhexidine HCl microbicidal concentration in combination (Proteus mirabilis ON153) | Chlorhexidine HCl microbicidal concentration in combination [11]
0.4 µg/mL: Chlorhexidine HCl microbicidal concentration in combination (S. epidermidis SK9 [1]) | Chlorhexidine HCl microbicidal concentration in combination [8] | Chlorhexidine HCl microbicidal concentration in combination [10] | MIC (E. coli SK2 [16]) | Chlorhexidine HCl microbicidal concentration in combination (MRSA ON184 [19])
